# Tested on: Lpa+Gulo (−/−) mouse
# Assay: Lipoprotein-cholesterol, apo(a) particle and apoB-100 particle modulation (SPIFE / IFE of sera) under ascorbic acid supplementation
# Format: in vivo
# Details: 30 mg/L, 60 mg/L or 150 mg/L ascorbic acid in drinking water in addition to 500 ppm vitamin C in food (full supplementation); FIG. 6-8
# Method: SPIFE Cholesterol Profiling (FIG. 2): The presence of complete Lp(a) lipoprotein particles in the Lp(a)+GULO(−/−) transgenic mouse serum was confirmed using the electrophoresis method with Helena (Beaumont, Tex.) SPIFE Cholesterol Profiling and Immunofixation electrophoresis (IFE). Immunofixation Electrophoresis (IFE) using the mouse sera was conducted on individual apo(a) (FIG. 3) containing particles and human apoB-100 containing particles (FIG. 4) as well, using human specific apo(a) and apoB-100 antibodies at Health Diagnostic Laboratory, Inc. (Richmond, Va.). The bands represent apo(a) and apoB-100 protein respectively in transgenic mouse and visualization of the same in serum derived from female and male mouse. Lipoprotein-cholesterol, Apo(a) particle, and ApoB-100 particle Modulation (FIG. 6, FIG. 7, and FIG. 8): The analysis was conducted on mouse sera from the Lpa+Gulo (−/−)mouse supplemented with either 30 mg/L, 60 mg/L or 150 mg/L of ascorbic acid provided in drinking water in addition to 500 ppm vitamin C provided in food (full supplementation). […] Sample order in FIGS. 6-8 correspond to the following key, with 30 vc referring to 30 mg/L Vitamin C group, 60 vc referring to 60 mg/L Vitamin C group, and sc referring to fully supplemented (150 mg/L Vitamin C+500 ppm Vitamin C in food) control group. The first three wells of each row were not used.
smiles,measurement,value
"O=C1O[C@H]([C@@H](O)CO)C(O)=C1O [ascorbate, ascorbic acid]",modulation of the whole spectrum of lipoprotein cholesterols and/or lipoprotein particles in mouse sera,could be modulated
